According to US4981856A, “Anti-tumor agents” (Imperial Chemical Industries PLC, priority 1987, dated 1991):

How the values were obtained:
humans = settings: particularly in relation to the liver and kidney; cited from earlier work
L1210 cell line = test: inhibitory effect on the mouse leukaemia cell line L1210 in cell culture; assay type: cell-based; settings: read-out: IC50 against the L1210 cell line
Text: (§1) Compounds of this type are believed to act as anti-tumour agents by inhibiting the enzyme thymidylate synthetase. Their anti-tumour activity may be assessed in vitro by determining their inhibitory effect on that enzyme, and in cell cultures by their inhibitory effect on the cell line L1210.
(§2) As also stated above a quinazoline of the invention is believed to act as an anti-tumour agent by inhibiting the enzyme thymidylate synthetase. This anti-tumour activity may be assessed in vitro by determining the inhibitory effect on that enzyme and is cell cultures by the inhibitory effect on the mouse leukaemia cell line L1210 (UK Patent Specification No. 2065653B).

thymidylate synthetase = thymidylate synthetase (Mus musculus, UniProt P07607); test: inhibitory effect on the enzyme thymidylate synthetase in vitro; assay type: biochemical; settings: in vitro enzyme inhibition; read-out: IC50 against thymidylate synthetase
Sequence of thymidylate synthetase (P07607 whole entry): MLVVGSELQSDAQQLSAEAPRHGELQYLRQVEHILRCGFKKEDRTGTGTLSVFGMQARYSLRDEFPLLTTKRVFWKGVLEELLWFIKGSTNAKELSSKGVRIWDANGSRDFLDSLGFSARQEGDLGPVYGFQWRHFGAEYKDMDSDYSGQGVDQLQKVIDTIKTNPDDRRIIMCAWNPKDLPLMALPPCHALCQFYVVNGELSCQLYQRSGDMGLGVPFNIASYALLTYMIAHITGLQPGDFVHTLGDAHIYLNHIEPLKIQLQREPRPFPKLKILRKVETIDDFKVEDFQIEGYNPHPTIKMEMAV
Text: as §1, §2

| SMILES | symptoms of toxicity in humans (humans) | IC50 (L1210 cell line) [nM] | IC50 (thymidylate synthetase) [nM] |
| --- | --- | --- | --- |
| C#CCN(Cc1ccc2nc(N)[nH]c(=O)c2c1)c1ccc(C(=O)N[C@@H](CCC(=O)O)C(=O)O)cc1 [CB3717] | shows symptoms of toxicity in humans, particularly in relation to the liver and kidney |  |  |
| C#CCN(Cc1cc2c(=O)[nH]c(C)nc2cc1C)c1ccc(C(=O)N[C@@H](CCC(=O)O)C(=O)O)cc1 [N-[p-[N-(3,4-dihydro-2,7-dimethyl-4-oxoquinazolin-6-ylmethyl)-N-(prop-2-ynyl)amino]benzoyl]-L-glutamic acid] |  | 180 | 30 |
